This passage reports CC50 and EC50 results from patent publication US8673929B2, “4,6-di- and 2,4,6-trisubstituted quinazoline derivatives and pharmaceutical compositions useful for treating viral infections” (priority 2006, dated 2014).

A short description of data set [1]: CC50 assay in the anti-HCV replicon assay (CellTiter-Glo). The class given is cell-based, human. Conditions: human, Huh-7 hepatoma cells harbouring an HCV replicon; Huh-7 HCV replicon cells, 3 days incubation, CellTiter-Glo luminescence. An outline of the steps: (§1)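 Huh-7 cells harbouring an HCV replicon (6000/well) incubated 3 days at 37° C with 3-fold serially diluted compound (0.5% DMSO final where used). EC50 from luciferase luminescence of lysed cells; CC50 from CellTiter-Glo luminescence in parallel plates.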
On the technique in general: A replicon is a self-replicating genome or part of one, used to study replication in cells.

A further data set has as its system HCV replicon. Kind of data set: Anti-HCV replicon assay, EC50 (luciferase readout). The data set is classed as cell-based. Conditions: Hepatitis C virus, 72 h; Huh-7 HCV replicon cells, 3 days incubation, luciferase luminescence. Summed up:
as §1

A value given as a limit tells only on which side of the number the result lay.

As to `Nc1nc(O[C@H]2CCOC2)c2cc(-c3ccc(C(=O)NC4CC4)cc3)ccc2n1` [Example 215, (S)-4-[2-Amino-4-(tetrahydro-furan-3-yloxy)-quinazolin-6-yl]-N-cyclopropyl-benzamide], the cytotoxic concentration (CC50) (in general, the concentration that lowers cell viability or growth by half) at 3 days in data set [1] was above 20 µM. The EC50 – broadly, the midpoint of the concentration-response curve – with HCV replicon is below 0.3 µM.

As to `CN(C)CCNC(=O)c1ccc(-c2ccc3nc(N)nc(O[C@H]4CCOC4)c3c2)cc1` [Example 216], the cytotoxic concentration (CC50) at 3 days in data set [1] was above 20 µM. The compound also showed an EC50 with HCV replicon below 0.3 µM.

On to `Nc1nc(O[C@@H]2CCOC2)c2cc(-c3ccc(C(=O)NCCN4CCOCC4)cc3)ccc2n1` [Example 217, (R)-4-[2-Amino-4-(tetrahydro-furan-3-yloxy)-quinazolin-6-yl]-N-(2-morpholin-4-yl-ethyl)-benzamide], for which, in data set [1], the cytotoxic concentration (CC50) at 3 days was above 20 µM. Also, the EC50 in the data set with HCV replicon was below 0.3 µM.

In data set [1], `Nc1nc(O[C@@H]2CCOC2)c2cc(-c3ccc(C(=O)NCCN4CCCC4)cc3)ccc2n1` [Example 218, (R)-4-[2-Amino-4-(tetrahydro-furan-3-yloxy)-quinazolin-6-yl]-N-(2-pyrrolidin-1-yl-ethyl)-benzamide] showed a 50% cytotoxic concentration (CC50) at 3 days below 10 µM. Moreover, the EC50 in the data set with HCV replicon is below 0.3 µM.

As for `Nc1nc(O[C@@H]2CCOC2)c2cc(-c3ccc(C(=O)NCC(F)(F)F)cc3)ccc2n1` [Example 219, (R)-4-[2-Amino-4-(tetrahydro-furan-3-yloxy)-quinazolin-6-yl]-N-(2,2,2-trifluoro-ethyl)-benzamide], in data set [1], the CC50 at 3 days is above 20 µM. The same compound gave a concentration for a half-maximal effect (EC50) with HCV replicon below 0.3 µM.

Regarding `Nc1nc(O[C@@H]2CCOC2)c2cc(-c3ccc(C(=O)NCCCN4CCCC4)cc3)ccc2n1` [Example 220, (R)-4-[2-Amino-4-(tetrahydro-furan-3-yloxy)-quinazolin-6-yl]-N-(3-pyrrolidin-1-yl-propyl)-benzamide], the CC50 at 3 days in data set [1] was below 10 µM. The concentration giving a half-maximal response (EC50) in the data set with HCV replicon was below 0.3 µM.

Regarding `CC(C)(CN1CCOCC1)NC(=O)c1ccc(-c2ccc3nc(N)nc(O[C@@H]4CCOC4)c3c2)cc1` [Example 222, (R)-4-[2-Amino-4-(tetrahydro-furan-3-yloxy)-quinazolin-6-yl]-N-(1,1-dimethyl-2-morpholin-4-yl-ethyl)-benzamide], the 50% cytotoxic concentration (CC50) at 3 days in data set [1] was above 20 µM. Besides, in the data set with HCV replicon, the half-maximal effective concentration (EC50) was below 0.3 µM.

In data set [1], `CC(C)(CN1CCCC1)NC(=O)c1ccc(-c2ccc3nc(N)nc(O[C@@H]4CCOC4)c3c2)cc1` [Example 223, (R)-4-[2-Amino-4-(tetrahydro-furan-3-yloxy)-quinazolin-6-yl]-N-(1,1-dimethyl-2-pyrrolidin-1-yl-ethyl)-benzamide] displayed a half-maximal cytotoxic concentration (CC50) at 3 days below 10 µM. For the same compound, the concentration giving a half-maximal response (EC50) in the data set with HCV replicon was below 0.3 µM.

In the case of `N#CC1(NC(=O)c2ccc(-c3ccc4nc(N)nc(O[C@@H]5CCOC5)c4c3)cc2)CC1` [Example 224, (R)-4-[2-Amino-4-(tetrahydro-furan-3-yloxy)-quinazolin-6-yl]-N-(1-cyano-cyclopropyl)-benzamide], the CC50 at 3 days in data set [1] was above 20 µM. In the data set on HCV replicon, this compound displayed an EC50 below 0.3 µM.

Consider `CC(C)N1CCC(NC(=O)c2ccc(-c3ccc4nc(N)nc(O[C@@H]5CCOC5)c4c3)cc2)CC1` [Example 225, (R)-4-[2-Amino-4-(tetrahydro-furan-3-yloxy)-quinazolin-6-yl]-N-(1-isopropyl-piperidin-4-yl)-benzamide], for which the CC50 at 3 days in data set [1] was above 20 µM. The compound further yielded an EC50 in the data set on HCV replicon of 1 to 10 µM.

For `CN(C)CCCOc1nc(N)nc2ccc(-c3cc4ccccc4o3)cc12` [Example 227, 6-benzofuran-2-yl-4-(3-dimethylaminopropoxy)-quinazolin-2-ylamine], in data set [1], the CC50 at 3 days is above 20 µM. The compound also yielded a concentration giving a half-maximal response (EC50) in the data set with HCV replicon of 1 to 10 µM.

As to `CN(C)CCCOc1nc(N)nc2ccc(-c3ccc(Cl)cc3Cl)cc12` [Example 229, 6-(2,4-Dichlorophenyl)-4-(3-dimethylamino-propoxy)-quinazolin-2-ylamine], the CC50 at 3 days in data set [1] is above 20 µM. The concentration giving a half-maximal response (EC50) in the data set on HCV replicon lay within 1 to 10 µM.

On to `CN(C)CCCOc1nc(N)nc2ccc(-c3cc(F)c(F)c(F)c3)cc12` [Example 230, 4-(3-Dimethylamino-propoxy)-6-(3,4,5-trifluoro-phenyl)-quinazolin-2-ylamine], for which, in data set [1], the 50% cytotoxic concentration (CC50) at 3 days was above 20 µM. In addition, the concentration giving a half-maximal response (EC50) in the data set with HCV replicon is 1 to 10 µM.

Turning to `Cc1cc(C)cc(-c2ccc3nc(N)nc(OCCCN(C)C)c3c2)c1` [Example 231, 4-(3-Dimethylamino-propoxy)-6-(3,5-dimethyl-phenyl)-quinazolin-2-ylamine], in data set [1], the CC50 at 3 days was above 20 µM. Besides, the EC50 in the data set on HCV replicon was 1 to 10 µM.

`CN(C)CCCOc1nc(N)nc2ccc(-c3ccc(Cl)cc3)cc12` [Example 232, 6-(4-Chloro-phenyl)-4-(3-dimethylamino-propoxy)-quinazolin-2-ylamine] gave a CC50 at 3 days in data set [1] above 20 µM. For the same compound, in the data set on HCV replicon, the EC50 lay in the range of 1 to 10 µM.

Compound `CN(C)CCCOc1nc(N)nc2ccc(-c3cccc(C(F)(F)F)c3)cc12` [Example 233, 4-(3-Dimethylamino-propoxy)-6-(3-trifluoromethyl-phenyl)-quinazolin-2-ylamine] gave a cytotoxic concentration (CC50) at 3 days in data set [1] above 20 µM. In the data set with HCV replicon, this compound gave an EC50 of 1 to 10 µM.

Regarding `Nc1nc(OCCN2CCOCC2)c2cc(-c3ccc(Cl)c(C(F)(F)F)c3)ccc2n1` [Example 234, 6-(4-Chloro-3-trifluoromethyl-phenyl)-4-(2-morpholin-4-yl-ethoxy)-quinazolin-2-ylamine], the half-maximal cytotoxic concentration (CC50) at 3 days in data set [1] lay within 10 to 20 µM. The compound also gave an EC50 with HCV replicon of 1 to 10 µM.

In the case of `Nc1nc(OCCN2CCOCC2)c2cc(-c3ccc(O)cc3)ccc2n1` [Example 235, 4-[2-Amino-4-(2-morpholin-4-yl-ethoxy)-quinazolin-6-yl]-phenol], the CC50 at 3 days in data set [1] was above 20 µM. The concentration for a half-maximal effect (EC50) in the data set on HCV replicon is 1 to 10 µM.

Regarding `Nc1nc(OCCN2CCOCC2)c2cc(-c3ccsc3)ccc2n1` [Example 236, 4-(2-Morpholin-4-yl-ethoxy)-6-thiophen-3-yl-quinazolin-2-ylamine], the half-maximal cytotoxic concentration (CC50) at 3 days in data set [1] was above 20 µM. Besides, the EC50 in the data set on HCV replicon lay in the range of 1 to 10 µM.

On to `Nc1nc(OCCN2CCOCC2)c2cc(-c3cccs3)ccc2n1` [Example 237, 4-(2-Morpholin-4-yl-ethoxy)-6-thiophen-2-yl-quinazolin-2-ylamine], for which the CC50 at 3 days in data set [1] is above 20 µM. The compound further registered a half-maximal effective concentration (EC50) with HCV replicon of 1 to 10 µM.

For the compound `Nc1nc(OCCN2CCOCC2)c2cc(-c3cc4ccccc4o3)ccc2n1` [Example 238, 6-Benzofuran-2-yl-4-(2-morpholin-4-yl-ethoxy)-quinazolin-2-ylamine], in data set [1], the half-maximal cytotoxic concentration (CC50) at 3 days was in the range of 10 to 20 µM. The concentration giving a half-maximal response (EC50) in the data set with HCV replicon fell in the range of 1 to 10 µM.

Compound `Nc1nc(OCCN2CCOCC2)c2cc(-c3ccoc3)ccc2n1` [Example 239, 6-Furan-3-yl-4-(2-morpholin-4-yl-ethoxy)-quinazolin-2-ylamine] displayed a CC50 at 3 days in data set [1] of 10 to 20 µM. The compound also yielded an EC50 in the data set on HCV replicon of 1 to 10 µM.

In data set [1], `Nc1nc(OCCN2CCOCC2)c2cc(-c3cc4ccccc4s3)ccc2n1` [Example 240, 6-Benzo[b]thiophen-2-yl-4-(2-morpholin-4-yl-ethoxy)-quinazolin-2-ylamine] showed a CC50 at 3 days above 20 µM. In addition, the EC50 in the data set on HCV replicon fell in the range of 1 to 10 µM.

As to `Nc1nc(OCCN2CCOCC2)c2cc(-c3ccccc3C(F)(F)F)ccc2n1` [Example 241, 4-(2-Morpholin-4-yl-ethoxy)-6-(2-trifluoromethyl-phenyl)-quinazolin-2-ylamine], the CC50 at 3 days in data set [1] was above 20 µM. The EC50 in the data set on HCV replicon was in the range of 1 to 10 µM.

Consider `Nc1nc(OCCN2CCOCC2)c2cc(-c3cccc(C(F)(F)F)c3)ccc2n1` [Example 242, 4-(2-Morpholin-4-yl-ethoxy)-6-(3-trifluoromethyl-phenyl)-quinazolin-2-ylamine], for which the half-maximal cytotoxic concentration (CC50) at 3 days in data set [1] lay within 10 to 20 µM. Besides, the 50% effective concentration (EC50) in the data set with HCV replicon lay within 1 to 10 µM.
